A short description of this data set: gradient 5% acetonitrile 3 min, to 50% in 2 min, to 85% in 15 min, held 3 min, 100 µL/min. Particulars: column: Zorbax Extend-C18 2.1 x 50 mm; eluents: water / acetonitrile, 0.1% formic acid. The gist of the method:
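The mobile phases were water and acetonitrile, each with 0.1% formic acid, pumped at 100 μL/min through a Zorbax Extend-C18 column (2.1 × 50 mm, 1.8 μm). Pure standards were injected as mixtures of ~100 molecules and detected by a quadrupole time-of-flight mass spectrometer in positive and negative ionization mode. Retention time came from computationally picked adduct peaks, each inspected by hand.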
The compound `COc1cc(-c2ccc(Nc3ccccc3C(=O)O)c(OC)c2)ccc1Nc1ccccc1C(=O)O` displayed an RP-LC retention time of 1290 s.
The result for `CCc1ccc(OCC(O)Cn2c(C3CC3)nc3ccccc32)cc1` (centres undefined) reads 739 s; that for `O=C(NCC(=O)N1CCN(c2ccccn2)CC1)c1cncc(Br)c1`, 576 s.
The result for `CCN1C(=O)CCc2cc(NS(=O)(=O)c3cccc(C)c3)ccc21` reads 788 s; that for `CCCc1noc(-c2ccnc(-n3ncc(C(=O)N4CCCC4)c3C)c2)n1`, 896 s; that for `Cc1ccc(-n2nc(N3CCN(C(=O)c4ccc(Br)o4)CC3)ccc2=O)cc1C`, 875 s.
The result for `O=C(C1CCC1)N1CCCC1c1nc(C2CCOCC2)no1` (centres undefined) reads 624 s; that for `Cc1cccc(-n2ccnc2SCC(=O)Nc2nccs2)c1C`, 670 s.
On to `Cc1ccc2c(=O)c3c([nH]c2c1C)CCN(CC(=O)Nc1cc(F)ccc1F)C3`, for which the RP-LC retention time is 638 s.
In turn, `O=C(NCCN1CCN(C(=O)CSc2nc3ccccc3s2)CC1)c1cccs1` registered an RP-LC retention time of 577 s.
The result for `Cc1ccsc1C(=O)N1C[C@H]2C[C@H](C1)[C@H]1CCCC(=O)N1C2` reads 754 s.
Compound `CC(C)(C)OC(=O)N1CCN(c2ncc(C(=O)NCc3ccccc3)c(N)n2)CC1` returned an RP-LC retention time of 743 s.
The same measure for `COC(=O)c1c(-c2ccccc2)noc1NCc1ccccc1`: 1050 s; for `CCn1cnc(S(=O)(=O)N2CCC(C(=O)Nc3ccc(C)cn3)CC2)c1`: 592 s.
As to `CCc1noc(C2(NC(=O)C(CC)c3ccccc3)CCCCC2)n1` (centres undefined), the RP-LC retention time turned out to be 1090 s.
The same measure for `Cc1ccc2c(c1)[C@H]1OCCC[C@H]1C(c1cccc(O)c1)N2` (some centres undefined): 928 s; for `CC(=O)N1CCN(c2nc3c(s2)CC(C(=O)NCc2ccc(F)cc2F)CC3)CC1` (centres undefined): 544 s.
The result for `Cc1ccc(NC(=O)CN2C(=O)CCc3cc(S(=O)(=O)N4CCCCC4C)ccc32)cc1F` (centres undefined) reads 1010 s; that for `COc1ccc(C(=O)Nc2ccc3c(c2)Sc2ncccc2C(=O)N3C)cc1OC`, 712 s; that for `O=C(Nc1ccccc1F)C(=O)c1cn(CC(=O)N2CCCC2)c2ccccc12`, 974 s.
For the compound `Cc1cc(-n2c(C)nc3ccccc3c2=O)ccc1NC(=O)C(C)Oc1ccccc1` (centres undefined), the RP-LC retention time was 876 s.
For `COc1ccccc1Oc1ccc(S(=O)(=O)Nc2cccc(C(C)=O)c2)cc1`, the RP-LC retention time is 887 s.
The same measure for `COc1cccc(NC(=O)N2CCN(c3cc(C)nc(N4CCOCC4)n3)CC2)c1`: 628 s; for `COc1ccc(-c2nc3cnccn3c2Nc2cccc(Cl)c2)cc1OC`: 817 s; for `Cc1cc(NC(=O)Cn2ccn3nc(-c4ccccc4)c(CO)c3c2=O)ccc1Br`: 917 s.
`O=C(NC1CCN(c2cc(-c3cccs3)[nH]n2)C1)c1ccccc1Br` (centres undefined): the RP-LC retention time came to 705 s.
The same measure for `CCN1c2ccccc2C(=O)NC12CCN(C(=O)NCc1ccc(F)cc1)CC2`: 769 s; for `COc1cccc(-c2cc(C(=O)N3CCC(NC(=O)c4cccc(Cl)c4)CC3)[nH]n2)c1`: 740 s; for `COc1cc(OC)c2c(C)cc(=O)oc2c1`: 809 s.
The same measure for `O=S(=O)(Cc1ccccc1)N1CC(n2cc(COc3ccc(F)cc3)nn2)C1`: 899 s.
The result for `CCN(CC)C(=O)c1ccc2c(c1)nnn2CCNC(=O)Nc1ccc(Br)cc1F` reads 787 s.
As for `Cc1ccccc1S(=O)(=O)N1CCC(CCC(=O)N2CCc3ccccc3C2)CC1`, the RP-LC retention time was found to be 1060 s.
The same measure for `COc1ccc(Cn2c(=O)c3sccc3n(Cc3nc(-c4ccc(C)c(C)c4)no3)c2=O)cc1`: 1180 s; for `COc1cccc2c1oc(=O)c1c(NC(C)=O)nc3c(c12)CCCCC3`: 1020 s; for `CN(C)CCCCN1CCc2c(n(C)c3ccccc23)C1=O`: 650 s.
The result for `O=C(Nc1ccc2c(c1)CCN2S(=O)(=O)c1ccccc1)Nc1cc(F)ccc1F` reads 1070 s.
In the case of `CCOc1cc(-c2ccccc2)nc2ccc(NC(=O)NCC(=O)OC)cc12`, the RP-LC retention time is 651 s.
Consider `Cc1ccc2c(c1)N(S(C)(=O)=O)CCC(C(=O)Nc1cccc(F)c1)O2` (centres undefined), for which the RP-LC retention time is 973 s.
The result for `CC1=NS(=O)(=O)N(Cc2ccccc2)C=C1C(=O)OCc1noc(-c2ccc(C)c(C)c2)n1` reads 1220 s; that for `Nc1cc(C2CCN(C(=O)Nc3ccc(Cl)cc3F)CC2)no1`, 717 s; that for `Cc1nnsc1C(=O)N1CCC(C(=O)Nc2nccs2)CC1`, 625 s.
The result for `CC(C)C(=O)N1CCc2ccc(NC(=O)c3ccc(Cl)c(Cl)c3)cc2C1` reads 901 s.
`CC1(C)NC(=O)N(CCC(=O)N2CCCn3nc(-c4ccc(F)cc4)cc3C2)C1=O` yielded an RP-LC retention time of 683 s.
The same measure for `O=C(Cn1cnc2nc(N3CCC(C(=O)NC4CC4)CC3)sc2c1=O)Nc1ccc2c(c1)OCO2`: 637 s; for `Cc1nc(-c2ccc(Cl)cc2)sc1CCNC(=O)c1ccco1`: 946 s; for `O=C(NCc1ccccc1F)c1ccc2c(c1)Sc1ncccc1C(=O)N2C1CC1`: 794 s.
The result for `O=S(=O)(c1cccc(-c2nnc(-c3ccc(Cl)cc3)o2)c1)N1CCCCC1` reads 1160 s; that for `COc1cc2c(cc1OC)C(Nc1nc(-c3ccccc3)cs1)=NC(C)(C)C2`, 878 s.
The result for `COc1ccc(-c2nnc(-c3ccccc3)o2)cc1S(=O)(=O)NC1CCCC1` reads 966 s; that for `CCOC(=O)c1cc(S(=O)(=O)N2CCCC2C(=O)Nc2cccc(SC)c2)cn1C` (centres undefined), 995 s; that for `CC(C(=O)NC1CCN(Cc2ccccc2)CC1)n1c(=O)c(C(F)(F)F)nc2ccccc21` (centres undefined), 731 s.
`O=C(NC1CCCCC1)N1CCC(c2noc(-c3ccccc3)n2)C1` (centres undefined) displayed an RP-LC retention time of 939 s.
The same measure for `O=C(CCCNC(=O)c1cc(-c2cccs2)[nH]n1)Nc1cccc2cccnc12`: 697 s.
Turning to `COc1ccc(C2CC(=O)N(c3ccccc3)C(=O)C2)cc1`, the RP-LC retention time is 842 s.
The same measure for `COc1ccc(N2CC(c3noc(-c4ccc(C)cc4)n3)CC2=O)cc1OC` (centres undefined): 909 s; for `CCN1CCC2(CC1)N=C(c1ccccc1)CC(c1cc(Cl)ccc1O)N2` (centres undefined): 621 s.
The same measure for `O=C(NCc1cccnc1-c1ccc(F)cc1)c1ccc(F)cc1F`: 690 s; for `c1ccc(-c2nc(-c3ccncc3)no2)c(OC2CCN(Cc3ccc4c(c3)CCO4)C2)c1` (centres undefined): 611 s.
The same measure for `COc1ccc(OC)c(NS(=O)(=O)c2cc(-c3nc(C)cs3)n(CC(=O)N3CCCC3)c2)c1`: 903 s; for `N#Cc1cccc(NC(=O)COc2ccc(-c3nnc4n3CCCC4)cc2)c1`: 653 s.
Compound `COCCc1noc(-c2cnc3nc(C)ccc3c2Nc2cccc(F)c2)n1` displayed an RP-LC retention time of 729 s.
Take `CCNC(=O)NCCc1cn(CCOC)c2ncccc12`: the RP-LC retention time worked out at 579 s.
The same measure for `COC(=O)c1ncn2c1C(=O)N(Cc1ccccc1F)C(C)(C(=O)NCc1ccc(C)cc1)C2` (centres undefined): 772 s; for `O=C(Nc1ccc(N2CCN(C3CCCC3)C2=O)nc1)c1ccccc1F`: 804 s; for `CN(C)S(=O)(=O)N1CCCC(c2nc(-c3ccccc3)no2)CCNC(=O)CC1` (centres undefined): 782 s.
The same measure for `Cc1cc(C(=O)N2CCN(C(=O)C3CC3c3cccs3)CC2)c(C)o1` (centres undefined): 767 s; for `COc1ccc(OCc2nc(CCN(C)C(=O)COc3ccccc3)no2)cc1`: 852 s.
The same measure for `O=C(NCC1CCCO1)c1ccc([N+](=O)[O-])cc1Cl` (centres undefined): 664 s; for `Brc1cccc(-c2nnc(Cc3nc(-c4ccccc4)no3)o2)c1`: 1080 s; for `Cc1cc2c(cc1C)N(CC(=O)Nc1ccc(F)cc1F)C(=O)CC(c1cccs1)=N2`: 1070 s.
In the case of `CCOC(=O)c1c(C)oc2nc(C)nc(NCC3CCN(Cc4ccc(F)cc4)CC3)c12`, the RP-LC retention time was found to be 712 s.
The result for `Cc1cc(C)c(C(=O)N2CCC(CC(=O)NC(c3cccs3)C(C)C)CC2)[nH]1` (centres undefined) reads 863 s; that for `CCC(=O)N1c2ccc(S(=O)(=O)N3CCCCC3)cc2CC1C(=O)NCCc1ccccc1` (centres undefined), 720 s; that for `O=C(NC1CCCC1)C1CCN(c2ncccc2-c2nc(-c3ccc(Cl)cc3)no2)CC1`, 1130 s.
The result for `CCOc1cc(=O)c(C(N)=O)nn1-c1ccc(C)cc1` reads 613 s.
In the case of `CCOC(=O)N1CCc2c(sc(NC(=O)C3CCCN(S(C)(=O)=O)C3)c2C#N)C1` (centres undefined), the RP-LC retention time was found to be 767 s.
The result for `CCc1noc(-c2nc(-c3ccccc3F)no2)n1` reads 1010 s; that for `CCn1ccc(C(=O)N2CCC(n3c(C)cnc3C3CCC3)C2)n1` (centres undefined), 576 s; that for `CCCn1cc(S(=O)(=O)Nc2ccc(C)c(F)c2)c2cccnc21`, 921 s.

Values taken from the METLIN SMRT retention time set (Domingo-Almenara et al. 2019).
